From patent publication EP3861991A1, “COMPOSITION FOR PREVENTING AND TREATING ACUTE AND CHRONIC WOUNDS” (Foodar Advanced Research S.r.l., priority 2020, dated 2021) come the findings set out here.

This experiment concerns HDF cells. The experiment can be described thus: Scratch assay: fibroblast cell migration and wound closure. It counts as cell-based, Human. The settings on record: 10 µM, single components, Fig. 2. On the procedure: Human dermal fibroblasts (HDF) (ATCC, Manassas, VA, USA) were grown in fibroblast basal medium supplemented with fibroblast growth kit-serum free (ATCC). Activation, proliferation and migration of fibroblasts are the primary steps in wound healing, where multiple cell types and other micro environmental factors are involved. Scratch assay is a widely applied In vitro technique for understanding the wound healing capabilities of medicinally important compounds. HDF cells were seeded in 6-well plates and were cultured overnight. Cells were then washed with Delbucco's Phosphate Buffered Saline (DPBS) and a scratch was made with a sterile 200µL tip. The detached cells and other cellular debris were removed by washing the cells with DPBS. The cells were treated with 10 µM of AND (source of Example 1), HYX (source of Example 1), or AND + HYX (1/1 ratio, same sources) and incubated for 24 h. Untreated cells were negative control. […] The experiments were performed in triplicate (n = 3). The width of the scratch and wound closure at different time intervals (0, 12, 24 and 48hrs) was analyzed by Image J software.

Regarding `C=C1CC[C@@H]2[C@](C)(CO)[C@H](O)CC[C@@]2(C)[C@@H]1C/C=C1/C(=O)OC[C@H]1O` [AND, 3-[2-[Decahydro-6-hydroxy-5-(hydroxymethyl)-5,8a-dimethyl-2-methylene-1-napthalenyl]ethylidene]dihydro-4-hydroxy-2(3H)-furanone], the “percentage of cell migration (in words, relative to the AND+HYX combination)” value is listed as “well lower”.
